In US12312332B2 (Merck Sharp & Dohme LLC., priority 2019, dated 2025):
pEC50: −log10 of the molar value.

Biological target: T1, human OX2R (Homo sapiens, UniProt O43614)
T1 construct: expressed in transfected cells; host or cells: Chinese hamster ovary (CHO) cells, kept under G418 selection
T1 sequence (O43614 1-444): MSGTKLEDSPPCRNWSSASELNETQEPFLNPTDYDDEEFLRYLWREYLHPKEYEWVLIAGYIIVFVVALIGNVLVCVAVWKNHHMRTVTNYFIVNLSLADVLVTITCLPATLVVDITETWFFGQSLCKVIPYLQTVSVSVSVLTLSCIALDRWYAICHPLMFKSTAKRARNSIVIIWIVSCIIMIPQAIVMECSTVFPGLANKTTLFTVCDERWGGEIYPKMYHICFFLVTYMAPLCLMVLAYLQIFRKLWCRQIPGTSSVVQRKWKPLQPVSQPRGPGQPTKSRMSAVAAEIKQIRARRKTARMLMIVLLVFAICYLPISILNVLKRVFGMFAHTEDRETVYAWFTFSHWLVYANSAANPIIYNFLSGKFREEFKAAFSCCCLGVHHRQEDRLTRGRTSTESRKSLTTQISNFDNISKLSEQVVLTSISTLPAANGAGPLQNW
Assay: IPOne (IP-One) orexin receptor agonist assay in CHO cells expressing human OX2R
Assay type: cell-based
Conditions: for pEC50: CHO cells expressing human OX2R, IP-One detection, 2 hours incubation, four parameter logistic fit, read-out: OX2R Potency, EC50; for % max agonist effect (Emax): human OX2R, percentage of sample raw value/mean max effect (reference compound at 1 uM with 100% activity)
Description: The utility of the compounds in accordance with the present invention as orexin receptor OX1R and/or OX2R agonists may be readily determined without undue experimentation by methodology well known in the art. Both the OX1R and/or OX2R G-coupled protein receptors (GPCRs) couple through the Gaq signaling pathway, which ultimately promotes calcium mobilization via inositol triphosphate (IP3) production. […] The utility of the compounds in accordance with the present invention as orexin receptor OX1R and/or OX2R agonists may be determined utilizing this assay.
In a typical experiment, the OX1 and OX2 receptor agonist activity is determined in accordance with the following general experimental method. Chinese hamster ovary (CHO) cells expressing human OX1R and/or the human OX2R were grown in Iscove's modified DMEM containing glutaMAX™, 1% G418, 100 U/mL penicillin, 100 μg/mL streptomycin and 10% heat-inactivated qualified fetal bovine serum (FBS). […] During this incubation, IP-one detection reagents were prepared (38:1:1 lysis buffer:D2:AB-cryptate reagents).
For each compound, data were fit to a four parameter logistic fit (ActivityBase software) and the EC50 was reported as the inflection point of the resulting curve. Percent effect for each test compound was determined as the percentage of sample raw value/mean max effect, where the mean max effect was derived from the mean raw value of 32 control wells per assay plate (using Orexin A (cat #003-30) at 1 μM for human OX1R and a reference compound at 1 uM with 100% activity previously established by comparison to Orexin A for human OX2R). The intrinsic orexin receptor agonist activity of a compound which may be used in the present invention may be determined by these assays.

SMILES | pEC50 | % max agonist effect (Emax)
C[C@@H]1C[C@H](NS(=O)(=O)N(C)C)[C@H](CO[C@H]2CC[C@@H](c3cccc(F)c3)CC2)N1c1nccc(O)c1F [Example 156, N′-((2R,3S,5R)-1-(3-fluoro-4-hydroxypyridin-2-yl)-2-((((CIS)-4-(3-fluorophenyl)cyclohexyl)oxy)methyl)-5-methylpyrrolidin-3-yl)-N,N-dimethyl-sulfamide] | 9.35 | 100.8%
CS(=O)(=O)N[C@H]1CCN(c2ccc(C(F)(F)F)cc2)[C@H]1CO[C@H]1CC[C@@H](c2ccccc2)CC1 (relative stereo) [Example 3, N-((CIS)-2-((((CIS)-4-phenylcyclohexyl)oxy)methyl)-1-(4-(trifluoromethyl)phenyl)pyrrolidin-3-yl)methanesulfonamide] | < 5.00 | 7.9%
CS(=O)(=O)N[C@H]1CCN(c2ccsc2)[C@H]1CO[C@H]1CC[C@@H](c2ccccc2)CC1 [Example 19, N-((2R,3S)-2-((((CIS)-4-phenylcyclohexyl)oxy)methyl)-1-(thiophen-3-yl)pyrrolidin-3-yl)methanesulfonamide] | 6.46 | 99.8%
C[C@@H]1C[C@H](NS(=O)(=O)N(C)C)[C@H](CO[C@H]2CC[C@@H](c3cccc(F)c3)CC2)N1c1cc(O)c(Cl)cn1 [Example 95, N′-((2R,3S,5R)-1-(5-chloro-4-hydroxypyridin-2-yl)-2-((((CIS)-4-(3-fluorophenyl)cyclohexyl)oxy)methyl)-5-methylpyrrolidin-3-yl)-N,N-dimethyl-sulfamide] | 9.64 | 100.5%
CS(=O)(=O)N[C@H]1CCN(c2cncc(C#N)c2)[C@H]1CO[C@H]1CC[C@@H](c2ccccc2)CC1 [Example 133, N-((2R,3S)-1-(5-cyanopyridin-3-yl)-2-((((CIS)-4-phenylcyclohexyl)oxy)methyl)pyrrolidin-3-yl)methanesulfonamide] | 6.00 | 100.3%
Cn1cnc(N2CC[C@H](NS(C)(=O)=O)[C@@H]2CO[C@H]2CC[C@@H](c3ccccc3)CC2)n1 (relative stereo) [Example 5, N-((CIS)-1-(1-methyl-1H-1,2,4-triazol-3-yl)-2-((((CIS)-4-phenylcyclohexyl)oxy)methyl)pyrrolidin-3-yl)methanesulfonamide] | 5.22 | 80.4%
CS(=O)(=O)N[C@H]1CCN(c2cnccc2O)[C@H]1CO[C@H]1CC[C@@H](c2ccccc2)CC1 [Example 122, N-((2R,3S)-1-(4-hydroxypyridin-3-yl)-2-((((CIS)-4-phenylcyclohexyl)oxy)methyl)pyrrolidin-3-yl)methanesulfonamide] | 7.42 | 101%
CS(=O)(=O)N[C@H]1CCN(c2cc(C#N)ccn2)[C@H]1CO[C@H]1CC[C@@H](c2ccccc2)CC1 [Example 138, N-((2R,3S)-1-(4-cyanopyridin-2-yl)-2-((((CIS)-4-phenylcyclohexyl)oxy)methyl)pyrrolidin-3-yl)methanesulfonamide] | 7.14 | 99.8%
CS(=O)(=O)N[C@H]1CCN(c2csc(-c3ccncc3)n2)[C@H]1CO[C@H]1CC[C@@H](c2ccccc2)CC1 (relative stereo) [Example 13, N-((CIS)-2-((((CIS)-4-phenylcyclohexyl)oxy)methyl)-1-(2-(pyridin-4-yl)thiazol-4-yl)pyrrolidin-3-yl)methanesulfonamide] | 5.76 | 83.9%
Cc1nnc(N2CC[C@H](NS(C)(=O)=O)[C@@H]2CO[C@H]2CC[C@@H](c3ccccc3)CC2)s1 (relative stereo) [Example 10, N-((CIS)-1-(5-methyl-1,3,4-thiadiazol-2-yl)-2-((((CIS)-4-phenylcyclohexyl)oxy)methyl)pyrrolidin-3-yl)methanesulfonamide] | 6.62 | 99.6%
CS(=O)(=O)N[C@H]1CCN(c2ncccn2)[C@H]1CO[C@H]1CC[C@@H](c2ccccc2)CC1 [Example 38, N-((2R,3S)-2-((((CIS)-4-phenylcyclohexyl)oxy)methyl)-1-(pyrimidin-2-yl)pyrrolidin-3-yl)methanesulfonamide] | 6.11 | 97.1%

Continued, values first:

pEC50 | % max agonist effect (Emax) | SMILES
5.85 | 68.5% | CS(=O)(=O)N[C@H]1CCN(c2cccc(C#N)n2)[C@H]1CO[C@H]1CC[C@@H](c2ccccc2)CC1 [Example 139, N-((2R,3S)-1-(6-cyanopyridin-2-yl)-2-((((CIS)-4-phenylcyclohexyl)oxy)methyl)pyrrolidin-3-yl)methanesulfonamide]
< 5.00 | 74.1% | CS(=O)(=O)N[C@H]1CCN(c2cccc(C#N)c2)[C@H]1CO[C@H]1CC[C@@H](c2ccccc2)CC1 [Example 147, N-((2R,3S)-1-(3-cyanophenyl)-2-((((CIS)-4-phenylcyclohexyl)oxy)methyl)pyrrolidin-3-yl)methanesulfonamide]
8.21 | 101.7% | CS(=O)(=O)N[C@H]1CCN(c2nccc(O)c2F)[C@H]1COC1CCC(c2ccccc2C(F)(F)F)CC1 (stereo partly drawn) [Example 160, N-((2R,3S)-1-(3-fluoro-4-hydroxypyridin-2-yl)-2-(((4-(2-(trifluoromethyl)phenyl)cyclohexyl)-oxy)methyl)pyrrolidin-3-yl)methanesulfonamide]
5.95 | 97.4% | CS(=O)(=O)N[C@H]1CCN(c2nc(Br)cs2)[C@H]1CO[C@H]1CC[C@@H](c2ccccc2)CC1 [Example 108, N-((2R,3S)-1-(4-bromothiazol-2-yl)-2-((((CIS)-4-phenylcyclohexyl)oxy)methyl)pyrrolidin-3-yl)methanesulfonamide]
6.44 | 100.0% | Cc1cnc(N2CC[C@H](NS(C)(=O)=O)[C@@H]2CO[C@H]2CC[C@@H](c3ccccc3)CC2)n1C [Example 29, N-((2R,3S)-1-(1,5-dimethyl-1H-imidazol-2-yl)-2-((((CIS)-4-phenylcyclohexyl)oxy)methyl)pyrrolidin-3-yl)methanesulfonamide]
6.82 | 101.2% | Cn1cc(N2CC[C@H](NS(C)(=O)=O)[C@@H]2CO[C@H]2CC[C@@H](c3ccccc3)CC2)nn1 (relative stereo) [Example 8, N-((CIS)-1-(1-methyl-1H-1,2,3-triazol-4-yl)-2-((((CIS)-4-phenylcyclohexyl)oxy)methyl)pyrrolidin-3-yl)methanesulfonamide]
6.09 | 99.7% | CS(=O)(=O)N[C@H]1CCN(c2cc(F)cnc2O)[C@H]1CO[C@H]1CC[C@@H](c2ccccc2)CC1 [Example 129, N-((2R,3S)-1-(5-fluoro-2-hydroxypyridin-3-yl)-2-((((CIS)-4-phenylcyclohexyl)oxy)methyl)pyrrolidin-3-yl)methanesulfonamide]
6.60 | 100.0% | Cc1ncc(N2CC[C@H](NS(C)(=O)=O)[C@@H]2CO[C@H]2CC[C@@H](c3ccccc3)CC2)cn1 [Example 60, N-((2R,3S)-1-(2-methylpyrimidin-5-yl)-2-((((CIS)-4-phenylcyclohexyl)oxy)methyl)pyrrolidin-3-yl)methanesulfonamide]
6.98 | 99.7% | COc1ccnc(N2CC[C@H](NS(C)(=O)=O)[C@@H]2CO[C@H]2CC[C@@H](c3ccccc3)CC2)c1 [Example 73, N-((2R,3S)-1-(4-methoxypyridin-2-yl)-2-((((CIS)-4-phenylcyclohexyl)oxy)methyl)pyrrolidin-3-yl)methanesulfonamide]
5.74 | 84.6% | COc1cccc(N2CC[C@H](NS(C)(=O)=O)[C@@H]2CO[C@H]2CC[C@@H](c3ccccc3)CC2)c1 [Example 146, N-((2R,3S)-1-(3-methoxyphenyl)-2-((((CIS)-4-phenylcyclohexyl)oxy)methyl)pyrrolidin-3-yl)methanesulfonamide]
9.27 | 101.1% | COC[C@@H]1C[C@H](NS(C)(=O)=O)[C@H](CO[C@H]2CC[C@@H](c3cccc(F)c3)CC2)N1c1cc(O)c(F)cn1 [Example 85, N-((2R,3S,5S)-1-(5-fluoro-4-hydroxypyridin-2-yl)-2-((((CIS)-4-(3-fluorophenyl)cyclohexyl)-oxy)methyl)-5-(methoxymethyl)pyrrolidin-3-yl)methanesulfonamide]
